Broadly, the melting point is the temperature of the solid-liquid transition. For `CCCCc1nn(-c2cc(N)ccc2C(F)(F)F)c(=O)n1Cc1ccc(-c2ccccc2S(=O)(=O)NC(=O)OC(C)(C)C)cc1`, the melting point fell in the range of 154 to 156 °C. With `COc1ccccc1CNc1nc(Cl)nc2c1ncn2[C@@H]1SC[C@@H](O)[C@H]1O` the figure was 188 °C; with `Cc1cccc(N2CCN(Cc3ccc4c(c3)NCCN4)CC2)c1`, 135 to 136 °C; with `CCOc1nc(-c2ccc(OC)c(OC)c2)cc(=Nc2c(C)cc(C)cc2C)n1C`, 116 to 119 °C. With `OCc1ccc2c(c1)C(C(Cl)(Cl)Cl)OC(C(Cl)(Cl)Cl)O2` (stereo not given), the melting point fell in the range of 134 to 136 °C. `CCCCCC(=O)c1c(CN(CC)CC)nc2cc(OC)c(OC)cc2c1-c1ccc(OC)c(OC)c1`: the melting point lay in the range of 104 to 106 °C.

`OCc1nc(-c2cccs2)cs1` displayed a melting point of 113 to 114 °C.

With `CCc1nc2ccccc2c(C(=O)OCC(=O)OC(C)(C)C)c1Oc1ccc(-c2ccccc2C#N)cc1`, the melting point was in the range of 83 to 85 °C.

Take `COc1ccc(C2=NN(C3CCN(C(=O)CN4C(=O)CCC4=O)CC3)C(=O)C(C)(C)C2)cc1OC`: the melting point is 177 to 179 °C.

Molecule `CC(C)(C)OC(=O)N1CCc2c(n(CCO)c3cc(Cl)cc(Cl)c23)CC1` yielded a melting point of 166 to 167 °C. With `N#Cc1nn(-c2c(Cl)cc(C(F)(F)F)cc2Cl)c(N)c1-c1cccs1` the figure was 206 to 207 °C; with `CNC(=O)Nc1ccc(OCCNCC(O)c2ccc(O)cc2)cc1` (stereo not given), 155 to 160 °C. The value for `CC(=O)N(C)[C@H]1CCN(C(=O)c2ccc(-c3[nH]nc4c3C(=O)c3c(NC(=O)NN5CCOCC5)cccc3-4)s2)C1` was greater than 300 °C. `CC(=O)c1c(C)nc2c(OCc3c(Cl)ccc(S(=O)(=O)N4CCC[C@H]4C(=O)NCCCNC(=O)c4ccc(C(N)=NO)cc4)c3Cl)cccn12`: the melting point was 164 to 166 °C. The value for `CC(=O)N(C#N)C1(c2ccc(OCc3ccc4ccccc4n3)cc2)CCCCC1` was 90 °C; that for `CCCCc1nn(-c2ccccc2C(F)(F)F)c(=O)n1Cc1ccc(-c2ccccc2S(=O)(=O)NC(=O)C(c2ccccc2)c2ccccc2)cc1` was 144 to 146 °C. With `CC(=O)C(c1ccc(Cl)cc1)c1c(Cl)cc(-n2ncc(=O)[nH]c2=O)cc1Cl` (stereo not given) the figure was 208 °C; with `O=C1OC(=O)c2c3ccccc3cc3cccc1c23`, 289 to 290 °C. With `CS(=O)(=O)c1cc(C(=O)NCCN2CCOCC2)c(NCc2ccco2)cc1Cl` the figure was 127 to 130 °C; with `CN1c2ccccc2CN(C(=O)c2ccc(-c3ccccc3)cc2)c2ccccc21`, 198 to 201 °C. `O=C(O)c1cc([N+](=O)[O-])ccc1Nc1ccc(CCCc2ccc(Cl)c(Cl)c2)cc1` yielded a melting point of 153 to 155 °C. With `C#CCNC(=O)c1cccc(F)c1Nc1nc(Nc2ccc3c(c2)N(C(C)=O)CCCC3)ncc1Cl` the figure was 210 to 214 °C; with `NCC(=O)NCC(=O)Nc1ccc([N+](=O)[O-])cc1C(=O)c1ccccc1`, 121 to 123 °C; with `COc1ccc(CC(C(N)=O)S(C)(=O)=O)cc1C(=O)NCc1ccc(C(F)(F)F)cc1` (stereo not given), 219 to 220 °C.

For `CCOC(=O)C(C)Oc1ccc(-c2nc(-c3ccc(OC(C)C(=O)OCC)cc3O)nc(-c3ccc(OC(C)C(=O)OCC)cc3O)n2)c(O)c1` (stereo not given), the melting point was 115 to 120 °C. The value for `CCC(CC)c1ccc(Cl)c2nc3n(c12)CCN3c1ccc(C(N)=O)cc1Cl` was 225 to 229 °C; that for `COc1cccc(CNC(=O)c2nc3cccc(OCc4ccc(C#N)cc4)c3c(=O)[nH]2)c1` was 218 to 220 °C. The value for `Cc1nc(NC(=O)NS(=O)(=O)c2ccccc2OC(Cl)=CCl)nc2c1CCO2` was 208 to 210 °C; that for `CCOC(=O)c1c(O)c2cc(F)ccc2n(Cc2ccccc2)c1=O` was 129 °C.

In turn, `CN(C)C(=O)c1cc(-c2ccccc2)c(=O)n2c1-c1ccccc1C2` gave a melting point of 207 to 209 °C.
